Reference: ChEMBL document CHEMBL1201862, “PubChem BioAssay data set” (2004)
Counter-ions that a name gives are not always drawn. Calls of active or inactive are those of the source.

How the values were obtained:
SN12K1 = assay: cells; type: functional; settings: Homo sapiens
P388 = assay: cells; type: functional; settings: Mus musculus
P388/ADR = assay: cells; type: functional; settings: Mus musculus
Cytochrome P450 2D6 = Cytochrome P450 2D6 (Homo sapiens, UniProt P10635);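 also: CYP2D6 member of a cytochrome P450 panel assay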
Sequence of Cytochrome P450 2D6 (P10635 whole entry): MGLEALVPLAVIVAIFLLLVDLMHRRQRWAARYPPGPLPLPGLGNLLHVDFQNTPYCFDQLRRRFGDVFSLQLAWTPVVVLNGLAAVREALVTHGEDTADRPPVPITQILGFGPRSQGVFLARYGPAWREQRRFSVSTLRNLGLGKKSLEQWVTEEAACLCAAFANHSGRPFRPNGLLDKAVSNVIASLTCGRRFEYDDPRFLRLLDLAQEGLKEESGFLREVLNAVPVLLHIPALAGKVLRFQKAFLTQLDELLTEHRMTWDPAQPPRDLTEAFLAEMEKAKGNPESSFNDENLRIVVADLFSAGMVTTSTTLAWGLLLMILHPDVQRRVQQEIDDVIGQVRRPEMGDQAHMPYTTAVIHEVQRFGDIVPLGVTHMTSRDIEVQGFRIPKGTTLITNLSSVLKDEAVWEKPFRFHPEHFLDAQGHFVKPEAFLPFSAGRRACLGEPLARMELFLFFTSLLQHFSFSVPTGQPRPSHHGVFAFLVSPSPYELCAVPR

Cytochrome P450 2C9 = Cytochrome P450 2C9 (Homo sapiens, UniProt P11712)
Sequence of Cytochrome P450 2C9 (P11712 whole entry): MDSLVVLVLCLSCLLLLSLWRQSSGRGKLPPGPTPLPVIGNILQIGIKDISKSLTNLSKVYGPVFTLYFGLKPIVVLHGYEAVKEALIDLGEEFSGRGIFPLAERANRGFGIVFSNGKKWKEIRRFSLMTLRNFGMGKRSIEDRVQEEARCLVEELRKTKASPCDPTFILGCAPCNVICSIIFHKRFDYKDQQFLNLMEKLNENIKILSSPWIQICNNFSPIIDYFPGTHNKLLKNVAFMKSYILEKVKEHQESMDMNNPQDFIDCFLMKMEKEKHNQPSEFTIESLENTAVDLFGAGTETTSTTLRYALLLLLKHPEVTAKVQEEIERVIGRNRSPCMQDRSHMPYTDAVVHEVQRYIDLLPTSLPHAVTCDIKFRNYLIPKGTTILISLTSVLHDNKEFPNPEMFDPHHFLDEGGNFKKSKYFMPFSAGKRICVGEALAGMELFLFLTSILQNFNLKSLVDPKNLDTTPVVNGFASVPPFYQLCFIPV

[1] = biological target: T1, Replicative DNA helicase DnaB (Mycobacterium tuberculosis, UniProt P9WMR3); assay: DnaB intein splicing inhibitors, dose response, biochemical, cell-free fluorescence (AID 449749); type: functional
T1 sequence (P9WMR3 whole entry): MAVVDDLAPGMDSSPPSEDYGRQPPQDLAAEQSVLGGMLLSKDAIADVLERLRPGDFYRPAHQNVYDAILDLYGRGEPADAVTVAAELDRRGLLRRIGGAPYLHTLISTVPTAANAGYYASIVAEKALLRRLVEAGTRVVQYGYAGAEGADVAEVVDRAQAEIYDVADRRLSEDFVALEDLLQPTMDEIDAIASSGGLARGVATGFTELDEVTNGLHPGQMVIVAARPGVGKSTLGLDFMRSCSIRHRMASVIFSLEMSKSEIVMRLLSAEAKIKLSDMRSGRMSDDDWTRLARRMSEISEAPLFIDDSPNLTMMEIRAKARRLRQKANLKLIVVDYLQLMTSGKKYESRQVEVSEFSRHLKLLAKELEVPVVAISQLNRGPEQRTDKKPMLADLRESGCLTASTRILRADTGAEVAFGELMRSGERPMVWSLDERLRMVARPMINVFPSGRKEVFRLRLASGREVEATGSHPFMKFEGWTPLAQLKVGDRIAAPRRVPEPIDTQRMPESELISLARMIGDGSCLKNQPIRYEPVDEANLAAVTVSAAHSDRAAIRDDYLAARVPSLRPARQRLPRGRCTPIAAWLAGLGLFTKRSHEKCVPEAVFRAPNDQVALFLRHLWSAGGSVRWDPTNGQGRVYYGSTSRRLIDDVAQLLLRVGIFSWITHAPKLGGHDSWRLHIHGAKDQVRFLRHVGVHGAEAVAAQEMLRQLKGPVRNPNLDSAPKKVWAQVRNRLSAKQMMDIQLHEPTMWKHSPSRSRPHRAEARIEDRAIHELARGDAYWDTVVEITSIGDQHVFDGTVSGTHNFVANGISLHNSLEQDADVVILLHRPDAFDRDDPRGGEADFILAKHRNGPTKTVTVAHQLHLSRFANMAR

Protein RecA = biological target: T2, Protein RecA (Mycobacterium tuberculosis, UniProt P9WHJ3); assay: Fluorescence Cell-Free Homogeneous Dose Retest to Identify Inhibitors of RecA-Intein Splicing Activity. [Related pubchem assays (depositor defined):AID2097, AID2223, AID489010, AID492950]; type: functional
T2 sequence (P9WHJ3 whole entry): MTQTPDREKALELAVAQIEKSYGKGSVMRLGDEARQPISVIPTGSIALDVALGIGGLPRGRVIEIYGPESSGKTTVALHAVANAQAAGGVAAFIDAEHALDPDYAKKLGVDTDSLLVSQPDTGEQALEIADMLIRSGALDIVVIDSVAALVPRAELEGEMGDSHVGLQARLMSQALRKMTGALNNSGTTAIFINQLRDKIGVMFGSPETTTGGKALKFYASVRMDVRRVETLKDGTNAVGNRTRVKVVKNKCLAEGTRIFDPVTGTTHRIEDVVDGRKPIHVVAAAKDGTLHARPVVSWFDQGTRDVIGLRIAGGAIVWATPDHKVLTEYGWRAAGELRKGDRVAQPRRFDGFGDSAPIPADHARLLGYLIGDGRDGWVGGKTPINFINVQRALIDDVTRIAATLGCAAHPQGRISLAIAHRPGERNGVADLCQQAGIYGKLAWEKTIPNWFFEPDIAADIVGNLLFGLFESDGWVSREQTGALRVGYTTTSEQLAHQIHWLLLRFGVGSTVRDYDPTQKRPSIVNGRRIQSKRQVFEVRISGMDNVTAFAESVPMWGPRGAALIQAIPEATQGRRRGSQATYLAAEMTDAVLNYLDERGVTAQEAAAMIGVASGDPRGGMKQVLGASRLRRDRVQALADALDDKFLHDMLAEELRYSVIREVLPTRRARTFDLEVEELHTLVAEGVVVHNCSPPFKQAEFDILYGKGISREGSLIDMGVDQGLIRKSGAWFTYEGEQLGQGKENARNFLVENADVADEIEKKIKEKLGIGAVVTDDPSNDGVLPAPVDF

[2] = C. albicans growth with fluconazole, confirmation, fluorescence, retest (AID 2467); type: functional, cell-based
[3] = NIH-3T3 fibroblast cytotoxicity, dose response, cytotoxicity control, cell-based, fluorescence, Alamar Blue, secondary assay (AID 2327); type: functional;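 also: NIH-3T3 mouse fibroblasts cultured with fluconazole at 8 µg/mL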
Fatty acid synthase [4] = biological target: T3, Fatty acid synthase (Homo sapiens, UniProt P49327); assay: FAS thioesterase domain inhibitors, dose response, biochemical, kinetic fluorescence intensity (AID 624326); type: functional;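 also: rate of fluorescence rise from hydrolysis of a fluorogenic O-methyl fluorescein ester substrate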
T3 sequence (P49327 whole entry, the tested form may be a part): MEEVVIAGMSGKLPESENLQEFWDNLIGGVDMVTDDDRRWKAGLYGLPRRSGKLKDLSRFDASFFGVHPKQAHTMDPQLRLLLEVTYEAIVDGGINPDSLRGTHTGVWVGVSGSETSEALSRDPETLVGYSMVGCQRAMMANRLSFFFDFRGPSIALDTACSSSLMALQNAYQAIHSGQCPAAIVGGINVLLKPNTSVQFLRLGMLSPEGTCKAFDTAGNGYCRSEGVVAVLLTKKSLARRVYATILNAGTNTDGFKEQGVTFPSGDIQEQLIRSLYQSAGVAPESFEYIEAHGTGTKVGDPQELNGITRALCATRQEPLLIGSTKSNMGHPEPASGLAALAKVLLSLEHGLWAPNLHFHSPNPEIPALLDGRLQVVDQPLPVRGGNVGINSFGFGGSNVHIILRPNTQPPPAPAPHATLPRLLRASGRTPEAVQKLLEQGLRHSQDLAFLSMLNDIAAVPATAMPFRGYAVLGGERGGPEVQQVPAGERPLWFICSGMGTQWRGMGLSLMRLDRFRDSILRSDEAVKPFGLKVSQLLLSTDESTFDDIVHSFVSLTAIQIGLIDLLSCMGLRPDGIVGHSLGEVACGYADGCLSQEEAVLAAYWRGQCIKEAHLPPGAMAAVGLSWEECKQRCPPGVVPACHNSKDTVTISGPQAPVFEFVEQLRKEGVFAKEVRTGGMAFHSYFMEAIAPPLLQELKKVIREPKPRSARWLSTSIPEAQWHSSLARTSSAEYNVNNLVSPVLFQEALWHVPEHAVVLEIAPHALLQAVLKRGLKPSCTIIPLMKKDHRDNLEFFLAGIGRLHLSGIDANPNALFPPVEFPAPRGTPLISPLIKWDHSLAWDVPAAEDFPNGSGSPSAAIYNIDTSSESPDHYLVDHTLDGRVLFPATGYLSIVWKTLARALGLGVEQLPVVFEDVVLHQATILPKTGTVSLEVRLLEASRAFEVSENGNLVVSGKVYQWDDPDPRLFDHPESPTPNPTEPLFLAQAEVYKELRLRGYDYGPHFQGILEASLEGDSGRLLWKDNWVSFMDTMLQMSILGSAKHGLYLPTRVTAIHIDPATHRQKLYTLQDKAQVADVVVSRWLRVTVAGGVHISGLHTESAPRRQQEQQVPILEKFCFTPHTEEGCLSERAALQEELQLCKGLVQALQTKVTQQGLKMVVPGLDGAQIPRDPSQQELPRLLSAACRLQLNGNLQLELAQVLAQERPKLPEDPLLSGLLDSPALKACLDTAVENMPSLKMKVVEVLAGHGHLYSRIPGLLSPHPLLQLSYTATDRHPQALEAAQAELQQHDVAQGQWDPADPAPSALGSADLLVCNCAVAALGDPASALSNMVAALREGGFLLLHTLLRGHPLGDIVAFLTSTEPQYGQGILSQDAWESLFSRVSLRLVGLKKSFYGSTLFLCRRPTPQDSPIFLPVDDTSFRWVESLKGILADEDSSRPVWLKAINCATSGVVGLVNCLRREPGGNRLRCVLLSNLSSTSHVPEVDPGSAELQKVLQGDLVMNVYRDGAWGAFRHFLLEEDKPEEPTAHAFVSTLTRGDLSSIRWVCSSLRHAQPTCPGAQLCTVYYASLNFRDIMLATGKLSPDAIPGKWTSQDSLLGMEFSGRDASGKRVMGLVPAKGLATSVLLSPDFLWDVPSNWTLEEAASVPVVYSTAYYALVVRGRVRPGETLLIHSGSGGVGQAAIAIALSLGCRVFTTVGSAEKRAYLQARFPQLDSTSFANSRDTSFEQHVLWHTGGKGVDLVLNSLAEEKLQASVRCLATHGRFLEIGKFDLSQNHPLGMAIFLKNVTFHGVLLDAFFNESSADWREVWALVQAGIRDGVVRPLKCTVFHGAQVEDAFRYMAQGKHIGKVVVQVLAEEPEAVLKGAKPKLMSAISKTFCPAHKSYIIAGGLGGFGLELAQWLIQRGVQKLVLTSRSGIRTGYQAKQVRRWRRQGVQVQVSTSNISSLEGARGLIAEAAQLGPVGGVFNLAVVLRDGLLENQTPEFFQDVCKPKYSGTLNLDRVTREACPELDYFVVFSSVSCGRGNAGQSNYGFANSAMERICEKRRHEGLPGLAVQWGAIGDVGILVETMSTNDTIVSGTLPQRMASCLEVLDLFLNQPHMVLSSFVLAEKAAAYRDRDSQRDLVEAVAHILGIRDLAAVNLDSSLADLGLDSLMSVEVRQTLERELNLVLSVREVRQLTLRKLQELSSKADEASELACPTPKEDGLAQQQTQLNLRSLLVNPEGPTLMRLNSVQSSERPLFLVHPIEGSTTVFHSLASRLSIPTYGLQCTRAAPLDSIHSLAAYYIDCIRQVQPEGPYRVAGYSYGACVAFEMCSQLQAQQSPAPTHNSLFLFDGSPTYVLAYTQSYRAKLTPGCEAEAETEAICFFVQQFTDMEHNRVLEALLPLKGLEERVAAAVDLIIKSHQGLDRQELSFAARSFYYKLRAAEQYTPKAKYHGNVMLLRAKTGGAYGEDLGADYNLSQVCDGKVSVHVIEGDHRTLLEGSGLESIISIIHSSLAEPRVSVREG

Fatty acid synthase [5] = biological target: T3, Fatty acid synthase; assay: FAS thioesterase domain inhibitors, dose response, biochemical, endpoint fluorescence intensity, uHTS hits (AID 624327); type: functional;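 also: fluorescence from hydrolysis of an O-methyl fluorescein acyl ester substrate by the enzyme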
BJ [6] = assay: cytotoxicity toward BJ-TERT-LT-ST fibroblasts, dose response, cell-based, RAS-independent, luminescence (AID 1935); type: functional; settings: Homo sapiens;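 also: BJ fibroblasts immortalized with TERT plus LT and ST oncogenes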
[7] = biological target: T4, Calpain-2 catalytic subunit (Sus scrofa, UniProt P43367); assay: pig calpain II inhibitor potency, dose response, biochemical, fluorogenic peptide substrate (AID 1420); type: functional
T4 sequence (P43367 whole entry): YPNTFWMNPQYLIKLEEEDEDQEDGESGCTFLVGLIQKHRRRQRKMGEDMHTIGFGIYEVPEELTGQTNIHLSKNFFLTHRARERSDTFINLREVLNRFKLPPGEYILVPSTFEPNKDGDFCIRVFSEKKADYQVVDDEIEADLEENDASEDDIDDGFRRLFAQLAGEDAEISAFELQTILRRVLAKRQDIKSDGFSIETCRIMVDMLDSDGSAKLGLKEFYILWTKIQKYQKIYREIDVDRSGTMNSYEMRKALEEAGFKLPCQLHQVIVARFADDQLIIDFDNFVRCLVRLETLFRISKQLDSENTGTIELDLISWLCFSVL

BJ [8] = assay: cytotoxicity toward BJ-TERT fibroblasts, dose response, cell-based, RAS-independent, luminescence (AID 1933); type: functional; settings: Homo sapiens
[9] = cytotoxicity toward DRD oncogenic fibroblasts, dose response, cell-based, non-viral oncogenic, luminescence (AID 1934); type: functional; settings: Homo sapiens
BJ [10] = assay: cells; type: functional, cell-based; settings: Homo sapiens
[11] = growth suppression of PTEN-null colon cells, dose response, cell-based, HCT116 PTEN knockout (AID 1047); type: functional;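 also: HCT116 colon tumor cells with PTEN knocked out; cells exposed to compound for 60 hours before readout; potency for loss of cell viability measured by luminescence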
[12] = growth suppression of beta-catenin-knockout colon cells, dose response, cell-based, HCT116, human colon tumor (AID 1045); type: functional;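 also: HCT116 colon tumor cells with beta catenin knocked out; cells exposed to compound for 60 hours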
[13] = biological target: T5, Ubiquitin-conjugating enzyme E2 N (Homo sapiens, UniProt P61088); type: functional;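 also: Dose-response confirmation in a TR-FRET assay detecting UBC13-driven polyubiquitin chain formation, inhibition measured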
T5 sequence (P61088 whole entry): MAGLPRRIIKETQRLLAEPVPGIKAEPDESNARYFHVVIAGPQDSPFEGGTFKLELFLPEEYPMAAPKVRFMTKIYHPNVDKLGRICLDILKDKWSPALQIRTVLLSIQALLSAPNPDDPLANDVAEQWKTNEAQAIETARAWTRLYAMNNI

INS1 = assay: beta cell apoptosis inhibitors, cytokine rescue, dose response, luminescence, retest (AID 449756); type: functional, cell-based; settings: Rattus norvegicus;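 also: cell death triggered by IL-1 beta plus TNF-alpha plus IFN-gamma mixture; protective hits raise ATP signal compared with cytokine alone wells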

For N[C@@H](Cc1ccc(N(CCCl)CCCl)cc1)C(=O)O [MELPHALAN HYDROCHLORIDE], the GI50 (SN12K1) was 26.5 µM (inactive), the GI50 (P388) was 2.39 µM (inactive) and the GI50 (P388/ADR) was 5.71 µM (inactive).
For CCOC(=O)c1oc2nc(CC(C)C)c3c(c2c1N)CCC3, the AC50 (Cytochrome P450 2D6) was 25.1 µM (inconclusive), the AC50 (Cytochrome P450 2C9) was “inconclusive” and the AC50 [1] was 91.7 µM (active). For the same compound, the EC50 (Protein RecA) was > 380 µM (inactive).
With COc1ccc(/C=C2\N=C(SC)NC2=O)cc1 the EC50 [2] was > 38 µM (not active) and the EC50 [3] was > 150 µM (inactive).
For O=c1[nH]cc(/N=C/c2cc([N+](=O)[O-])ccc2O)c(=O)[nH]1, the EC50 [2] was > 38 µM (not active), the AC50 [1] was 5.98 µM (active) and the EC50 [3] was > 150 µM (inactive). For the same compound, the EC50 (Protein RecA) was 5.48 µM (active).
For CC(C)(C)c1ccc(C(=O)NCCC(=O)Nc2cc(Cl)ccc2N2CCOCC2)cc1, the IC50 (Fatty acid synthase [4]) was 4.54 µM (active) and the IC50 (Fatty acid synthase [5]) was 9.59 µM (active).
With Cc1ccc(C2COc3cc(O)c(O)cc3C2)cc1 (stereo not drawn) the GI50 (SN12K1) was 13.2 µM (inactive), the GI50 (P388) was 1.75 µM (inactive) and the GI50 (P388/ADR) was 1.79 µM (inactive).
For O=C(N1CCN(c2ccccn2)CC1)N1c2ccccc2Sc2ccccc21, the EC50 (BJ [6]) was 0.979 µM (inconclusive), the IC50 [7] was 4.55 µM (not active) and the EC50 (BJ [8]) was 0.62 µM (active). For the same compound, the EC50 [9] was 0.523 µM (active) and the EC50 (BJ [10]) was 53.6 µM (inconclusive).
In the case of CCCCCCCCCCCCCCCCSCC(COC)COP(=O)([O-])OCC[N+](C)(C)C (stereo not drawn) [ILMOFOSINE], the GI50 (SN12K1) is reported as 11.7 µM (inactive), the GI50 (P388) is reported as 2.36 µM (inactive) and the GI50 (P388/ADR) is reported as 4.01 µM (inactive).
In the case of CCCCn1cc[n+](C2=C([N-]S(=O)(=O)c3ccccc3)C(=O)c3ccccc3C2=O)c1, the EC50 [11] is reported as 5.34 µM (active) and the EC50 [12] is reported as 5.73 µM (active).
For CN1CCN(c2ccc([N+](=O)[O-])cc2/C=N/NC(=O)c2ccc(F)cc2)CC1, the IC50 (Fatty acid synthase [4]) was 16 µM (active) and the IC50 (Fatty acid synthase [5]) was 11.2 µM (active).
With CC(=O)Oc1ccc2ccccc2c1C(NC(=O)Cc1ccccc1)c1ccccc1Cl (stereo not drawn) the EC50 [11] was 22.4 µM (active) and the EC50 [12] was 27.7 µM (active).
With CN(C)CCCn1cnc2c(c1=N)C(c1ccccc1)c1ccc3ccccc3c1O2 (stereo not drawn) the EC50 (BJ [6]) was 4.25 µM (active), the IC50 [13] was > 20 µM (inactive) and the AC50 (INS1) was 6.49 µM (active). For the same compound, the EC50 (BJ [8]) was 5.45 µM (inconclusive), the EC50 [9] was 5.25 µM (active) and the EC50 (BJ [10]) was 8.21 µM (active).
